The values that follow come from patent EP0516660B1, “USE OF S-ADENOSYL METHIONINE AS AN AGENT AGAINST VIRAL INFECTIONS BY RETROVIRUSES” (Grundmann, Ewald, Dr., priority 1990, dated 1991).

Structures are written as SMILES.

For this assay, the system named is HIV. Description: HIV-infected lymphocyte cultures, virus amount determined as radioactive reverse transcriptase in the culture supernatant. The assay is classed as cell-based. The settings on record: for Reverse Transkriptase: HIV-Zahl in Lymphocyten-Kultur. The method, then: Lymphocyten-Kulturen aus der Nabelschnur von Neugeborenen (H. Rübsamen-Waigmann et al. "Isolation of Variants of Lymphocytopathic Retroviruses from the Peripheral Blood and Cerebrospinal Fluid of Patients with ABC or AIDS", J. Medical Virology 19, S. 335 bis 344; 1986) wurden mit Viren, die dem Blut von AIDS-Kranken entnommen waren, geimpft. Dazu werden zu 5 ml der Lymphocyten-Kultur (1 · 10⁶ Zellen pro ml) 0,5 ml einer HIV-Suspension gegeben, die 10⁴ bis 10⁵ infektiöse Partikel pro ml enthält. Die Kulturmedien werden mit unterschiedlichen Mengen S-Adenosyl-L-methionintosylat-bis-Sulfat versetzt. Ein Drittel bis zur Hälfte des jeweiligen Kulturmediums werden nach 1 bis 2 Tagen durch frisches Kulturmedium gleicher Zusammensetzung ersetzt.
Retroviren zeichnen sich dadurch aus, daß sie ausschließlich RNA (Ribonukleinsäure) als Nukleinsäure enthalten und eine spezielle Polymerase, nämlich Reverse Transkriptase benötigen, die nach der Infektion in der Wirtszelle aus der Virus-RNA eine in die DNA der Wirtszelle einbaubare Virus-DNA bildet, vgl. H. Rübsamen "Biochemie der Tumorviren", Chemie in unserer Zeit 17, S. 169 bis 180; 1983. Daraus ergibt sich eine Nachweismethode für Retroviren, die auf der für diese typischen Reversen Transkriptase und dem durch diese in die DNA eingebauten Tritium-markierten Thymidin beruht, vgl. H. Rübsamen et al., l.c.:
In Abhängigkeit vom positiven Nachweis der Infektion durch mikroskopische Kontrolle werden nach 3 bis 5 Tagen jeweils 5 ml der überstehenden Kulturflüssigkeit durch Zentrifugieren (1o min bei 10.000 g) geklärt. Die so geklärte Probe wird bei 100.000 g/50 min zentrifugiert und der Rückstand in 60 µl eines Tris-Puffers lysiert (10 mM Tris, 0,2 % Triton X-100, 1 mM EDTA, 5 mM Dithiothreitol, 60 mM KCl, pH 7,3).
Jeweils 30 µl des Lysats werden mit 30 µl Templat (0,01 mg/ml Poly(rA)·oligo (dT) (Pharmacia, Uppsala, Schweden) in 5 mM MgCl₂, 2,4 mM Dithiothreitol, 60 mM KCl und 0,0034 mM Methyl-[³H]thymidin-5'-Triphosphat; 48 Ci/mM, Amersham, Bucks; England) 90 min bei 37° C inkubiert. Die Reaktion wird durch Zugabe von 10-proz. Laurylsarkosin bis zu einer Laurylsarkosin-Endkonzentration von 1,4 % beendet. Die freie und in das RNA/DNA-Hybrid eingebaute Radioaktivität von 10 µl des mit Laurylsarkosin versetzten Inkubats werden dann in üblicher Weise an einem DEAE-Filter getrennt, das nach dem Waschen und Trocknen in eine Szintillationsflüssigkeit gegeben wird. Die Radioaktivität wird dann mit einem Szintillationszähler gemessen. Die eingebaute Radioaktivität (Zerfälle pro min pro 5 ml) nach Abzug des Blindwertes ist dann ein Maß für die in der überstehenden Kulturflüssigkeit enthaltene Reverse Transkriptase und damit für die Menge an Retroviren, die in der Kultur enthalten sind.

Take `C[S+](CC[C@H](N)C(=O)O)C[C@H]1O[C@@H](n2cnc3c(N)ncnc32)[C@H](O)[C@@H]1O` (stereo partly drawn) [Adenosylmethionin, S-Adenosyl-L-methionintosylat-bis-Sulfat]: the “Reverse Transkriptase” value runs as follows: (Adenosylmethionin 4 µg/ml) 114 000 counts/min und 5 ml; (Adenosylmethionin 40 µg/ml) 86 000 counts/min und 5 ml; (Adenosylmethionin 200 µg/ml) 73 000 counts/min und 5 ml; (Adenosylmethionin 400 µg/ml) 60 000 counts/min und 5 ml; (Adenosylmethionin 1000 µg/ml) 29 000 counts/min und 5 ml. Moreover, where the note is “Human immunodeficiency virus 1, Lymphocyte, read-out: Halbwertskonzentration, bei der die Retrovirenkonzentration auf die Hälfte zurückgeht”, the IC50 lay in the range of 100 to 200 µg/mL.
